This test has as its target Isoform Alpha-4-2 of Neuronal acetylcholine receptor subunit alpha-4 (Alpha-4-2)/Neuronal acetylcholine receptor subunit beta-2 (Rat, UniProt P09483+P12390). In words: Adult male rat cerebral cortices (Pelfreeze Biological, Rogers, Ark.) were homogenized in 39 volumes of ice-cold 50 mM Tris buffer (pH 7.4 at 4° C.) containing 120 mM NaCl, 5 mM KCl, 2 mM CaCl2, and 1 mM MgCl2 and sedimented at 37,000 g for 10 min at 4° C. The supernatant was discarded, the pellet resuspended in the original volume of buffer, and the wash procedure repeated twice more. After the last centrifugation, the pellet was resuspended in 1/10 its original homogenization volume and stored at −80° C. until needed. […] Total and nonspecific bindings were determined in the presence of vehicle and 300 μM (−)-ni. Conditions: 25 °C.

Each structure is given as a SMILES string.

Isoform Alpha-4-2 of Neuronal acetylcholine receptor subunit alpha-4 (Alpha-4-2)/Neuronal acetylcholine receptor subunit beta-2, sequence (P09483 as listed by the source): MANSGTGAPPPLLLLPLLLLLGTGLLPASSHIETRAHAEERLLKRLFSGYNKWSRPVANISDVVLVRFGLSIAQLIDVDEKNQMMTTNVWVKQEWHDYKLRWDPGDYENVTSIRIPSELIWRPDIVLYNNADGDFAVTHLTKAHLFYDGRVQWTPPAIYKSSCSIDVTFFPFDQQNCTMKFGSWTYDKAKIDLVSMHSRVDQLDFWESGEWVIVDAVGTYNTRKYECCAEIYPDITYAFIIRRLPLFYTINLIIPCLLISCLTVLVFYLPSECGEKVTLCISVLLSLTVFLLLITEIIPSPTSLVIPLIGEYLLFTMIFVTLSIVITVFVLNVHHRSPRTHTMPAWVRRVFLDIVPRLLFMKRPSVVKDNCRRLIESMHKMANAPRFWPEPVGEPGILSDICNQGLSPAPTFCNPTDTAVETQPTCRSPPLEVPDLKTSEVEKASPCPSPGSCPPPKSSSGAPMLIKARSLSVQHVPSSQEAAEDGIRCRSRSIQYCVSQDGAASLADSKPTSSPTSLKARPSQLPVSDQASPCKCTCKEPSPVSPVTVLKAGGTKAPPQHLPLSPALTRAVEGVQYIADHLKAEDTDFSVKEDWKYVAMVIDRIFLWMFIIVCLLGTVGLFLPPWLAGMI
Isoform Alpha-4-2 of Neuronal acetylcholine receptor subunit alpha-4 (Alpha-4-2)/Neuronal acetylcholine receptor subunit beta-2, sequence (P12390 whole entry, canonical isoform): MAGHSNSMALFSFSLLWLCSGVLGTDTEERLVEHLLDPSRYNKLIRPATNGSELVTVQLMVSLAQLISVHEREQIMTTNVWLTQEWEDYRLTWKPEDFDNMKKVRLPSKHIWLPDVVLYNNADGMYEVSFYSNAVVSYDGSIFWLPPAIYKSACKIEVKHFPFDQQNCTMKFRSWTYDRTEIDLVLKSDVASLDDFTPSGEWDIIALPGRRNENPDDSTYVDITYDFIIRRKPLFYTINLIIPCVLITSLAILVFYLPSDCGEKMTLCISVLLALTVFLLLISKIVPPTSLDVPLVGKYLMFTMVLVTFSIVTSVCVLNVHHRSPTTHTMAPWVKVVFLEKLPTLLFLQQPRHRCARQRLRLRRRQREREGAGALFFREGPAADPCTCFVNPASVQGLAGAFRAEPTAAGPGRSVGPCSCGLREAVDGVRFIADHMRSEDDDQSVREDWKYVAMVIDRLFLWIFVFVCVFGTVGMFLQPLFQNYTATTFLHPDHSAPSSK

The term Ki denotes the equilibrium dissociation constant of an inhibitor or competing ligand from its target. Take `Fc1ncc(C2CC3CCC2N3)cc1-c1cncnc1` (stereo not drawn) [US9284322, Table 7, Compound 2]: the Ki was 0.84 nM.
As for `Clc1ncc(C2CC3CCC2N3)cc1-c1cncnc1` (stereo not drawn) [US9284322, Table 7, Compound 3], the figure is 0.32 nM; as for `c1ncc(-c2cncc(C3CC4CCC3N4)c2)cn1` (stereo not drawn) [US9284322, Table 7, Compound 1], 0.12 nM.
